The values below come from US12606585B2, “Fluorinated hexoses” (Stichting Radboud Universiteit, priority 2020, dated 2026).

Broadly, the EC50 is the midpoint of the concentration-response curve.

The structures appear in SMILES notation. Read-outs that look alike come from different tables or passages of the source.

Holding throughout (format): cell-based
The test system of one experiment is Jurkat cells. Briefly: Lectin staining for fucose expression inhibition, Jurkat cells. Particulars: Homo sapiens, 72 h, 3 days, 0-512 μM compound, flow cytometry. As to the method: (§1) THP-1 cells (TIB-202, ATCC) and Jurkat cells (TIB-152, ATCC) were cultured in RPMI-1640 medium containing 2 mM Glutamine and 25 mM HEPES (Gibco™, Life Technologies), supplemented with 10% v/v heat-inactivated fetal bovine serum (FBS) (Gibco™, Life Technologies) and 1× antibiotic-antimycotic solution (100 units/mL of penicillin, 100 μg/mL of streptomycin, and 0.25 μg/mL Fungizone) (Gibco™, Life Technologies) and passaged every 3-4 day by seeding a fraction of 0.5-2 min cells of the culture per 10 ml medium. EL-4 cells (TIB-39, ATCC) were cultured in DMEM medium (Gibco™, Life Technologies), supplemented with 10% v/v heat-inactivated fetal bovine serum (FBS) (Gibco™, Life Technologies), 1× antibiotic-antimycotic solution (100 units/mL of penicillin, 100 μg/mL of streptomycin, and 0.25 μg/mL Fungizone) (Gibco™, Life Technologies) and 2 mM Glutamine (Gibco™, Life Technologies) and passaged every 2-4 days by seeding a fraction of 0.5-1 min cells of the culture per 10 ml medium. For passaging a T75 flask (Corning), medium was removed and the monolayer was washed with 10 ml PBS pH 7.2 without CaCl2) and MgCl2 (Gibco™, Life Technologies) before adding 3.5 ml 0.05% trypsin/EDTA solution (Gibco™ 5 Life Technologies) in PBS. Cells were incubated at rt for 30-45 s after which the trypsin/EDTA-solution was removed. Cells were incubated for an additional 2 min at 37° C., 5.0% CO2 and resuspended in cell culture medium. Cells were then seeded at ˜40.000 cells/cm^2 in new culture flasks. All cells were cultured at 37° C., 5% CO2 in a humidified incubator.
(§2) Protocol below was repeated until n>=3 for each compounds using cells at different passage numbers. Cells were cultured in medium containing different concentrations of unnatural sugar derivatives on either 24-wells plates (adherent cell lines; 80,000 cells per well) (Corning) or 96-wells plates (suspension cell lines; 13,000-20,000 cells per well) (Thermo Scientific). DMSO, at same dilution as the unnatural sugar derivative stock solutions, was used as a positive control for lectin staining; P-Fuc2F was used for all concentrations as negative control. Cells were incubated for three days at 37° C. and 5% CO2 in a humidified incubator. Cells were harvested and washed with 100 μl 1×CF-blocking buffer (Vector Laboratories Inc.) containing 1 mM CaCl2) and 1 mM MgCl2. The cells were then resuspended in 50 μl 0.5 μg/ml of 0.5 ng/ml biotinylated lectin in 1× carbo-free blocking buffer and incubated at 4-8° C. for 45-60 min. Cells were washed with 3×100 μl PBA (PBS containing 1% v/v FBS and 0.1% w/w sodium azide), incubated with 40 μl 1 μg/ml Streptavidin-phycoerythrin conjugate (Invitrogen, eBioscience) in PBA for 10-15 min at 4-8° C. Cells were then washed again with 3×100 μl PBA, resuspended in PBA and fluorescence was measured with a flow cytometer (Beckman & Dickinson FACS-Calibur). Each replicate for each condition with >10,000 gated events. Data was processed using FlowJo (FlowJo LLC). Percentage of lectin binding was obtained by normalizing the MFI values to the MFI values of the respective DMSO control.
(§3) Three cell lines (THP-1, Jurkat, EL4) were cultured for 3 days with 0-512 μM compound. The cells were stained with two fucose specific lectins (AAL & AOL) and analysed by flow cytometry, presented as mean percentage lectin binding normalized to control (n=3).
A general note: Flow cytometry measures light scatter and fluorescence of single cells or particles in a stream.

Another experiment has as its system EL4 cells. Description: Lectin staining for fucose expression inhibition, EL4 cells. Particulars: Mus musculus, 72 h, 3 days, 0-512 μM compound, flow cytometry. The protocol:
as §1, §2, §3

The next experiment relates to THP-1 cells. Description: Lectin specificity: total cell surface glycosylation with additional lectins. Particulars: 100 μM and 10 μM, three days; for LCA and PSA lectin binding: lectins restricted to α1,6-linked core fucosylation. As to the method: Protocol below was repeated until n>=3 for each compounds using cells at different passage numbers. Culture medium was prepared in 96-wells plates (Thermo Scientific). For every unnatural sugar derivative, 11 wells containing 100 μM of unnatural sugar derivatives and 11 wells containing 10 μM of the unnatural sugar derivatives were prepared. DMSO, at same dilution as the tested probes, was used as a positive control for lectin staining. THP-1 Cells were cultured in the plates (20,000 cells per well) and the cells were incubated for three days at 37° C. and 5% CO2. Cells were harvested and washed with 100 μl 1×CF-blocking buffer (Vector Laboratories Inc.) containing 1 mM CaCl2) and 1 mM MgCl2. The cells were then resuspended in 50 μl 0.5 μg/ml of either 0.5 ng/ml biotinylated AAL, AOL, SNA, MAL-II, WGA, LCA, PSA, PNA, PHA-L or GSL-1 lectin in 1× carbo-free blocking buffer or with 50 μl of non-supplemented 1× carbo-free blocking buffer and incubated at 4-8° C. for 45-60 min. Cells were washed with 3×100 μl PBA (PBS containing 1% v/v FBS and 0.1% w/w sodium azide), incubated with 40 μl 1 μg/ml Streptavidin-phycoerythrin conjugate (Invitrogen, eBioscience) in PBA for 10-15 min at 4-8° C. Cells were then washed again with 3×100 μl PBA, resuspended in PBA and fluorescence was measured with a flow cytometer (Beckman & Dickinson FACS-Calibur). Each replicate for each condition with >10,000 gated events. Data was processed using FlowJo (FlowJo LLC). Percentage of lectin binding was obtained by normalizing the MFI values to the MFI values of the respective DMSO control.
Compounds 9 & 10 are mannose-1-phosphate derivatives, so other glycosylation pathways such as mannosylation could be imagined to be affected. Having established the ability to inhibit cellular fucosylation with AAL and AOL lectins, the effect on total cell surface glycosylation was evaluated using additional lectins (FIG. 4A and FIG. 4B). N-glycans consist of a biantennary mannose containing backbone, recognized by WGA, and can be branched recognized by L-Pha. These branches can be terminated with galactose, recognized by PNA, or α2,6- and α2,3-linked sialic acids recognized by SNA and MAL-II, respectively. […] The decrease in binding for these lectins can thus be attributed to defucosylation as confirmed by a decrease in AAL and AOL binding and no effect on WGA binding.

[1] abbreviates: AAL lectin, n=3, read-out: EC50 for fucose expression inhibition, Jurkat AAL.
Setting [2] is: AOL lectin, n=3, read-out: EC50 for fucose expression inhibition, Jurkat AOL.
Where [3] appears, read: AAL lectin, n=3, read-out: EC50 for fucose expression inhibition, EL4 AAL.
Where [4] appears, read: AOL lectin, n=3, read-out: EC50 for fucose expression inhibition, EL4 AOL.

Regarding `CC(=O)OC1C(OC(C)=O)[C@H](OC(C)=O)C(C(F)F)O[C@@H]1OP(=O)(OCCSC(C)=O)OCCSC(C)=O` (stereo partly drawn) [P-D-Rha6F2-1P (9), Di-(S-acetyl-2-thioethyl)-(2,3,4-tri-O-acetyl-6,6-difluoro-α-D-rhamnopyranoside) phosphate], the EC50 in the experiment on Jurkat cells (setting [1]) was 5.93 µM; in the experiment on Jurkat cells (setting [2]), 4.1 µM; in the experiment with EL4 cells (setting [3]) it was 14.2 µM; in the experiment on EL4 cells (setting [4]), 38.2 µM. For the same molecule, the “effect on binding of WGA, L-Pha, PNA, SNA and MAL-II lectins” value in the experiment with THP-1 cells is reported as “No significant effect”. Further, the “LCA and PSA lectin binding” value in the experiment on THP-1 cells was “decreased binding”.
Take `CC(=O)OC1C(OC(C)=O)[C@H](OC(C)=O)C(C(F)(F)F)O[C@@H]1OP(=O)(OCCSC(C)=O)OCCSC(C)=O` (stereo partly drawn) [P-D-Rha6F3-1P (10), Di-(S-acetyl-2-thioethyl)-(2,3,4-tri-O-acetyl-6,6,6-trifluoro-α-D-mannopyranoside) phosphate]: the concentration giving a half-maximal response (EC50) with Jurkat cells (setting [1]) is 27.7 µM; in the experiment with Jurkat cells (setting [2]) it was 12.8 µM; with EL4 cells (setting [3]) it was over 500 µM; in the experiment with EL4 cells (setting [4]), over 500 µM. For the same molecule, the “effect on binding of WGA, L-Pha, PNA, SNA and MAL-II lectins” value in the experiment on THP-1 cells is reported as “No significant effect”. In the experiment on THP-1 cells, the “LCA and PSA lectin binding” value is “decreased binding”.
